Source: patent publication US7686852B2, “Monoazo dyes” (Clariant Finance (BVI) Limited, priority 2004, dated 2010)

What was measured:
[1] = Solubility in water / stability of stock solutions; format: physicochemical; conditions: room temperature
[2] = Comparative Test Series 3: stability of dye solution after cooling to 25° C. and 48 hours, filtration test; format: physicochemical; design: key to Aspect of the solution after the 48 hours: 1): after cooling down turned immediately cloudy; 2): remained clear after cooling down; key to Grade of the visual inspection of the upper filter: a grade of 5 signifies no residue; 4 signifies little, fine residues; 3 signifies bigger residues; 2 signifies coarse residues; 1 signifies a compact layer of precipitated dyestuff; conditions: for Aspect of the solution after the 48 hours: dissolved at 90° C., kept at 25° C. for 48 hour; for time for passing of the 200 ml of dye solution trough the 2 filter layers / Grade of the visual inspection of the upper filter: after 48 hour at 25° C.; for Grade of the visual inspection of the upper filter: filtered through 2 paper filters
Procedure: In 160 ml of water a certain amount of dyestuff was dissolved at 90° C. and the resulting solution was diluted to 200 ml by adding water of 90° C. This solution was put in a water bath kept at 25° C. and after the dye solution was at 25° the dye solution was let for 48 hour without stirring or shaking at 25° C.
The solution was visually inspected first and the filtrated trough 2 layers of paper filters of 70 mm diameter (Typ 1450 CV obtainable from Schleicher & Schuell MicroScience GmbH
Hahnestrasse 3; D-37586 Dassel). The time for passing of the 200 ml of dye solution was measured and the upper filter was inspected visually. Grades are given and a grade of 5 signifies no residue, 4 signifies little, fine residues, 3 signifies bigger residues, 2 signifies coarse residues and 1 signifies a compact layer of precipitated dyestuff.

[3] = hot water, then cooling; cited from earlier work

| SMILES | stability of stock solutions [1] | Aspect of the solution after the 48 hours ([2]; 6 g/Liter in water) | time for passing of the 200 ml of dye solution trough the 2 filter layers ([2]; 6 g/Liter) | Grade of the visual inspection of the upper filter ([2]; 6 g/Liter) | Aspect of the solution after the 48 hours ([2]; 12 g/Liter in water) | time for passing of the 200 ml of dye solution trough the 2 filter layers ([2]; 12 g/Liter) | Grade of the visual inspection of the upper filter ([2]; 12 g/Liter) | Aspect of the solution after the 48 hours ([2]; 20 g/Liter in water) | time for passing of the 200 ml of dye solution trough the 2 filter layers ([2]; 20 g/Liter) | Grade of the visual inspection of the upper filter ([2]; 20 g/Liter) | Aspect of the solution after the 48 hours ([2]; 30 g/Liter in water) | time for passing of the 200 ml of dye solution trough the 2 filter layers ([2]; 30 g/Liter) | Grade of the visual inspection of the upper filter ([2]; 30 g/Liter) | solubility in water [3] |
| --- | --- | --- | --- | --- | --- | --- | --- | --- | --- | --- | --- | --- | --- | --- |
| Cc1cc(OS(=O)(=O)c2ccc(C(C)(C)C)cc2)ccc1/N=N/c1ccc(Nc2ccc(S(=O)(=O)O)cc2[N+](=O)[O-])cc1 [Example 1] | remain clear for several weeks even at room temperature | 2) | 6 s | 4 | 2) | 7 s | 3 to 4 | 2) | 7 s | 3 | 2) | 8 s | 2 to 3 |  |
| Cc1ccc(S(=O)(=O)Oc2ccc(/N=N/c3ccc(Nc4ccc(S(=O)(=O)O)cc4[N+](=O)[O-])cc3)c(C)c2)cc1 |  | 1) | 16 s | 4 | 1) | 27 s | 3 | 1) | 33 s | 2 to 3 | 1) | 95 s | 1 to 2 | soluble in hot water, but partly reprecipitates on cooling |
